The text below walks through data of patent publication US20250145715A1, “B7-H3 TARGETING FUSION PROTEINS AND METHODS OF USE THEREOF” (GT Biopharma, Inc., priority 2021, published 2025).

Common to all, as to format: cell-based, human
One assay has as its system MM1S cells. The assay can be described thus: IncuCyte Zoom NK cell killing of MM1S. Particulars: E:T 2:1 and 4:1. The text has this:
(§1) FIGS. 7A-7B illustrate the ability of peripheral blood NK cells with or without B7-H3-TriKE to kill myeloma cells in live imaging IncuCyte Zoom assays. FIG. 7A is a graph showing the effects with effector:target (E:T) ratios of 2:1 and 4:1 on MM1S cells. FIG. 7B is a graph showing the effects with effector:target (E:T) ratios of 2:1 and 4:1 on U266 cells.
(§2) FIGS. 8A-8D illustrate the ability of peripheral blood NK cells with or without B7-H3-TriKE to kill myeloma cells in live imaging IncuCyte Zoom assays. FIG. 8A is a graph showing the effects with effector:target (E:T) ratios of 2:1 and 4:1 on H929 cells. FIG. 8B is a graph showing the effects with effector:target (E:T) ratios of 2:1 and 4:1 on MM1S cells. FIG. 8C is a graph showing the effects with effector:target (E:T) ratios of 2:1 and 4:1 on RPMI-8226 cells. FIG. 8D is a graph showing the effects with effector:target (E:T) ratios of 2:1 and 4:1 on U266 cells.
FIGS. 9A-9D illustrate the efficacy of B7-H3-TriKE with the proteasome inhibitor bortezomib (10 nM) and the immunomodulatory drug lenalidomide (5 μM). FIG. 9A is a graph showing the effect of the combination therapy on H929 cells after 48 hours. FIG. 9B is a graph showing the effect of the combination therapy on RPMI-8226 cells after 48 hours. FIG. 9C is a graph showing the effect of the combination therapy on MM1S cells after 48 hours. FIG. 9D is a graph showing the effect of the combination therapy on U266 cells after 48 hours.
The ability of peripheral blood NK cells with or without B7-H3-TriKE to kill myeloma cells was compared in live imaging IncuCyte Zoom assays with escalating doses of TriKE. Maximal killing occurred with 3 nM concentration.
The efficacy of B7-H3-TriKE with the proteasome inhibitor bortezomib (10 nM) and the immunomodulatory drug lenalidomide (5 μM) was also tested. Cytotoxicity curves were compared by repeated measures ANOVA and performed in triplicate.

The next assay relates to U266 cells. The assay is described as follows: IncuCyte Zoom NK cell killing of U266. The note with it: E:T 2:1 and 4:1.
Source text: as §1, §2
FIGS. 9A-9D illustrate the efficacy of B7-H3-TriKE with the proteasome inhibitor bortezomib (10 nM) and the immunomodulatory drug lenalidomide (5 μM). FIG. 9A is a graph showing the effect of the combination therapy on H929 cells after 48 hours. FIG. 9B is a graph showing the effect of the combination therapy on RPMI-8226 cells after 48 hours. FIG. 9C is a graph showing the effect of the combination therapy on MM1S cells after 48 hours. […]

Another assay has as its system PC-3 cells. The assay can be described thus: PC3 standard IncuCyte real-time killing assay. Particulars: IncuCyte platform. On the procedure:
FIG. 16 is a graph illustrating a PC3 standard IncuCyte Assay.
Tumor killing was evaluated in real-time using the IncuCyte platform. […] Caspase-3/7 green dye (Sartorious, Ann Arbor, MI, USA) was added to pick up dying cells that have not yet lost NuclightRed fluorescence. Noted treatments were then added at a 30 nM concentration, and the plate was placed in an IncuCyte ZOOM® platform housed inside a cell incubator at 37° C./5% C02. Images from three technical replicates were taken every 15 min for 48 h using a 4× objective lens and then analyzed using IncuCyte™ Basic Software v2018A (Sartorious). Graphed readouts represent percentage live OVCAR8 targets (NuclightRed+Caspase-3/7−), normalized to live targets alone at the starting (0 h) time point.

Assay [1] has as its system NCI-H322 lung cancer cells. The assay can be described thus: NK cell CD107a / IFNγ flow cytometry against NCI-H322. Particulars: normal donor PBMCs, vs controls. The source says: FIGS. 24A-24F illustrate that B7-H3 TriKE enhances NK cell function against lung tumor targets. FIG. 24A is a graph showing pooled analysis of proportion of NK cells from healthy donors expressing CD107a+ against A549(N=6) tumor targets. FIG. 24B is a graph showing pooled analysis of proportion of NK cells from healthy donors expressing IFNγ against A549(N=6) tumor targets. FIG. 24C is a graph showing pooled analysis of proportion of NK cells from healthy donors expressing CD107a+ against NCI-H322 (N=5) tumor targets. FIG. 24D is a graph showing pooled analysis of proportion of NK cells from healthy donors expressing IFNγ against NCI-H322 (N=5) tumor targets. FIG. 24E is a graph showing pooled proportion of NK cells from healthy donors (black bars) or lung cancer patients (white bars) expressing CD107a+ against NCI-H460 (N=7). FIG. 24F is a graph showing pooled proportion of NK cells from healthy donors (black bars) or lung cancer patients (white bars) expressing IFNγ against NCI-H460 (N=7). ** p<0.01, *** p<0.001, and **** p<0.0001.
ADCC was measured in a flow cytometry assay by evaluating degranulation via CD107a (lysosomal-associated membrane protein LAMP-1) and intracellular IFNγ production. […] Samples were washed and evaluated in an LSRII flow cytometer (BD Biosciences, San Jose, CA, USA). […]
Background: In flow cytometry, cells or beads pass a laser one at a time.

As for “B7-H3 TriKE: camelid nanobodies targeting CD16 and B7-H3 joined by IL-15 and two linkers; sequence table equates the name with cam1615B7-H3”, the “NK cell killing of MM1S” value in the assay with MM1S cells is “significantly enhanced killing”. For the same substance, the “NK cell killing of U266” value in the assay on U266 cells is “significantly enhanced killing”. In the assay with PC-3 cells, the “real-time tumor killing of PC-3 cells” value is “enhanced efficacy”.
“cam1615B7-H3: second-generation TriKE: humanized camelid anti-CD16 VHH, human wild-type IL-15, anti-B7-H3 mAb 376.96 scFv; SEQ ID NO:1”: the “NK cell activation against NCI-H322” value in assay [1] was “significantly and robustly improved NK cell activation”.
